Test results reported in EP0643966A1, “SENSITIVITY ENHANCER FOR ANTINEOPLASIC AGENT” (KYOWA HAKKO KOGYO CO., LTD., priority 1993, dated 1994).
Where a name gives a salt, the structure may show the parent alone. Read-outs that look alike come from different tables or passages of the source.

Columns and labels:
[1] = system: Adriamycin-Resistant Human Ovary Cancer Cells (A2780/ADM); experiment: Test on Vindesine Resistance Using Adriamycin-Resistant Human Ovary Cancer Cells (A2780/ADM)
Protocol: (§1) A2780/ADM cells were diluted with an RPMI 1640 medium (430-1800 EB, produced by GIBCO) containing 10% fetal bovine serum (200-6140AG, produced by GIBCO) and 1% glutamine (320-5030 PG, produced by GIBCO) to a concentration of 30000 cells/ml. One milliliter of the cell suspension was inoculated to each well of a 24-well microtiter plate and cultured under conditions of 37°C, 5% CO₂, and a humidity of 95% or higher for 1 day. A mixture of 0.1 ml of a Vindesine solution diluted serially with the above medium and 0.1 ml of the above medium was added to each well as a control group. […] The cells in each well were further cultured under the same conditions as above for additional 3 days, and the number of the cells was counted with a Coulter counter to obtain a 50% growth inhibitory concentration (IC₅₀) of the control groups and the test groups.

[2] = system: Vincristine-Resistant Mouse Leukemia Cells (P388/VCR); experiment: Test on Vincristine Resistance Using Vincristine-Resistant Mouse Leukemia Cells (P388/VCR); format: in vivo; details: for T/C: P388/VCR-implanted CDF₁ mice
Protocol: Vincristine-resistant P388 cells (P388/VCR) were suspended in physiological saline, and 5x10⁶ cells/0.2 ml were intraperitoneally implanted to grouped 6-week-old CDF₁ strain male mice, each group consisting of 5 mice. A prescribed amount of Vincristine alone or a mixture of Vincristine and a test compound (I) was intraperitoneally administered for consecutive 5 days from the next day of the implantation. The effect of overcoming the drug resistance was evaluated in terms of T/C, a percentage of the number of survival days of a test group to the number of survival days of a control group.
Vincristine (VCR) used was Vincristine Sulfate, produced by Shionogi & Co., Ltd., dissolved in physiological saline. Compound (I) was suspended in a 0.3% aqueous solution of carboxymethyl cellulose and administered in an amount of 0.1 ml per 10 g-b.w. […]

[3] = system: Adriamycin-Resistant Human Ovary Cancer Cells (A2780/ADM); details: 72 h
Protocol: as §1

[4] = A2780, 72 h, read-out: IC₅₀ of Test Compound Alone, A2780/ADM cells, test compound alone, 3 days culture, cell count

What does the source list for `COC1C(N(C)C(=O)OCc2ccccc2)CC2OC1(C)n1c3ccccc3c3c4c(c5c6ccccc6n2c5c31)C(=O)N(C)C4` (stereo not drawn) [Compound I-2]?
IC50 [1, 4]: > 100 µM; T/C ([2]; Compound (I-2) alone 22.2 mg/kg i.p. for 5 consecutive days, survival days vs control): 102%; effect of overcoming the drug resistance ([2]; P388/VCR-implanted mice, combined with Vincristine, statement in words): excellent effects to overcome the drug resistance; T/C ([2]; VCR 0.1 mg/kg + Compound (I-2) 22.2 mg/kg i.p. for 5 consecutive days): 152%

How did the IC50 [1, 4] turn out when `COC1C(N(C)C(=O)N2CCN(C)CC2)CC2OC1(C)n1c3ccccc3c3c4c(c5c6ccccc6n2c5c31)C(=O)NC4O` (stereo not drawn) [Compound I-3] was run?
Its IC50 is 10 µM.

With `CCOC(=O)N(C)C1CC2OC(C)(C1OC)n1c3ccccc3c3c4c(c5c6ccccc6n2c5c31)C(=O)N(C)C4` (stereo not drawn) [Compound I-10] as the compound, how does the IC50 ([1]; A2780, 72 h, read-out: IC₅₀ of Test Compound Alone) read?
The IC50 was greater than 10 µM.

Which IC50 [1, 4] does the source give for `COC(=O)C1(OC(C)=O)CC2OC1(C)n1c3ccccc3c3c4c(c5c6ccccc6n2c5c31)C(=O)N(C(C)=O)C4` (stereo not drawn) [Compound I-17] here?
Its IC50 is greater than 100 µM.

With `CCCCCCOC(=O)C1(O)CC2OC1(C)n1c3ccccc3c3c4c(c5c6ccccc6n2c5c31)C(=O)NC4=O` (stereo not drawn) [Compound I-15] as the compound, how does the IC50 [1, 4] read?
The IC50 was 2.8 µM.

What does the source list for `CC[C@]1(O)C[C@H]2CN(CCc3c([nH]c4ccccc34)[C@@](C(=O)OC)(c3cc4c(cc3OC)N(C=O)[C@H]3[C@@](O)(C(=O)OC)[C@H](OC(C)=O)[C@]5(CC)C=CCN6CC[C@]43[C@@H]65)C2)C1` [VCR, Vincristine Sulfate, reference compound]?
T/C ([2]; VCR alone 0.1 mg/kg i.p. for 5 consecutive days): 112%; T/C ([2]; VCR alone 0.2 mg/kg i.p. for 5 consecutive days): 116%; T/C ([2]; VCR alone 0.4 mg/kg i.p. for 5 consecutive days): 121%

Which IC50 [1, 4] does the source give for `COC1C(N(C)CCO)CC2OC1(C)n1c3ccccc3c3c4c(c5c6ccccc6n2c5c31)C(=O)NC4O` (single isomer, unassigned) [Compound I-9] here?
Its IC50 is 9.2 µM.

Which IC50 [1, 4] does the source give for `COC1C(N(C)C(=O)CN2CCN(C)CC2)CC2OC1(C)n1c3ccccc3c3c4c(c5c6ccccc6n2c5c31)C(=O)NC4O` (stereo not drawn) [Compound I-6] here?
The IC50 was 12.5 µM.

How did the IC50 [3] turn out when `COC1C(N(C)CCO)CC2OC1(C)n1c3ccccc3c3c4c(c5c6ccccc6n2c5c31)C(=O)NC4O` (single isomer, unassigned) [Compound I-8] was run?
The IC50 was 17.2 µM.

For `COC1C(N(C)C(=O)CN(C)C)CC2OC1(C)n1c3ccccc3c3c4c(c5c6ccccc6n2c5c31)C(=O)NC4O` (stereo not drawn) [Compound I-5], which IC50 [1, 4] is on record?
The IC50 was 9.1 µM.

Which results are given for `CCOC(=O)C1(O)CC2OC1(C)n1c3ccccc3c3c4c(c5c6ccccc6n2c5c31)C(=O)NC4` (stereo not drawn) [Compound I-11]?
IC50 [1, 4]: 0.16 µM; IC50 ([1]; A2780, read-out: IC₅₀ of Vindesine, A2780/ADM cells, Vindesine with test compound at 0.05 µM): 0.77 µM

With `CCCCOC(=O)C1(O)CC2OC1(C)n1c3ccccc3c3c4c(c5c6ccccc6n2c5c31)C(=O)NC4` (stereo not drawn) [Compound I-13] as the compound, how does the IC50 [1, 4] read?
The IC50 was 1.1 µM.

`CC[C@]1(O)C[C@@H]2CN(CCc3c([nH]c4ccccc34)[C@@](C(=O)OC)(c3cc4c(cc3OC)N(C)[C@H]3[C@@](O)(C(N)=O)[C@H](O)[C@]5(CC)C=CCN6CC[C@]43[C@@H]65)C2)C1` [Vindesine, reference compound] was tested. Which IC50 ([1]; A2780, read-out: IC₅₀ of Vindesine, A2780/ADM cells, control group: Vindesine alone, no test compound) did it give?
The IC50 was 1.3 µM.

For `CCCOC(=O)C1(O)CC2OC1(C)n1c3ccccc3c3c4c(c5c6ccccc6n2c5c31)C(=O)NC4` (stereo not drawn) [Compound I-12], which IC50 [1, 4] is on record?
The IC50 was 0.42 µM.

Which IC50 [1, 4] does the source give for `COC1C(N(C)C(=O)CN2CCOCC2)CC2OC1(C)n1c3ccccc3c3c4c(c5c6ccccc6n2c5c31)C(=O)NC4O` (stereo not drawn) [Compound I-4] here?
The IC50 was 7 µM.

How did the IC50 [1, 4] turn out when `CCCCCCOC(=O)C1(O)CC2OC1(C)n1c3ccccc3c3c4c(c5c6ccccc6n2c5c31)C(=O)NC4` (stereo not drawn) [Compound I-14] was run?
Its IC50 is 4.8 µM.

With `COC1C(N(C)CCOC(=O)N2CCN(C)CC2)CC2OC1(C)n1c3ccccc3c3c4c(c5c6ccccc6n2c5c31)C(=O)NC4O` (stereo not drawn) [Compound I-7] as the compound, how does the IC50 [1, 4] read?
The IC50 was 9.5 µM.

With `CNC1CC2OC(C)(C1OC)n1c3ccccc3c3c4c(c5c6ccccc6n2c5c31)C(=O)N(C)C4` (stereo not drawn) [Compound I-1] as the compound, how does the IC50 [1, 4] read?
The IC50 was 0.26 µM.
